Data published in ChEMBL document CHEMBL1201862, “PubChem BioAssay data set” (2004).
The source made the active and inactive calls.

How the values were obtained:
BJ [1] = test: BJ-TERT-LT-ST fibroblast viability loss – cell-based, RAS-independent, luminescence, dose response (AID 1935); assay type: functional; details: Homo sapiens;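 also: BJ fibroblasts immortalized with TERT plus LT and ST oncogenes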
BJ [2] = test: cells; assay type: functional, cell-based; details: Homo sapiens
[3] = DRD fibroblast viability loss – cell-based, non-viral oncogenic, luminescence, dose response (AID 1934); assay type: functional; details: Homo sapiens
BJ [4] = test: BJ-TERT fibroblast viability loss – cell-based, RAS-independent, luminescence, dose response (AID 1933); assay type: functional; details: Homo sapiens
BJ [5] = test: growth inhibition of engineered Ras-driven BJ cells – cell-based, alamar blue fluorescence, cherrypicked samples, dose response (AID 2631); assay type: functional; details: Homo sapiens;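 also: confirmatory dose-response assay in RAS-dependent BJ fibroblasts engineered with TERT, LT and ST, with cytotoxicity read by fluorescence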
[6] = molecular target: T1, Microphthalmia-associated transcription factor (Homo sapiens, UniProt O75030); test: reducers of TRPM1 reporter luminescence, concentration series – cell-based, SK-MEL-5, cherry-picked, set 3, MITF inhibitor project, dose response (AID 493073); assay type: functional;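 also: SK-MEL-5 melanoma cells with luciferase driven by the MITF target TRPM1 promoter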
T1 sequence (O75030 whole entry): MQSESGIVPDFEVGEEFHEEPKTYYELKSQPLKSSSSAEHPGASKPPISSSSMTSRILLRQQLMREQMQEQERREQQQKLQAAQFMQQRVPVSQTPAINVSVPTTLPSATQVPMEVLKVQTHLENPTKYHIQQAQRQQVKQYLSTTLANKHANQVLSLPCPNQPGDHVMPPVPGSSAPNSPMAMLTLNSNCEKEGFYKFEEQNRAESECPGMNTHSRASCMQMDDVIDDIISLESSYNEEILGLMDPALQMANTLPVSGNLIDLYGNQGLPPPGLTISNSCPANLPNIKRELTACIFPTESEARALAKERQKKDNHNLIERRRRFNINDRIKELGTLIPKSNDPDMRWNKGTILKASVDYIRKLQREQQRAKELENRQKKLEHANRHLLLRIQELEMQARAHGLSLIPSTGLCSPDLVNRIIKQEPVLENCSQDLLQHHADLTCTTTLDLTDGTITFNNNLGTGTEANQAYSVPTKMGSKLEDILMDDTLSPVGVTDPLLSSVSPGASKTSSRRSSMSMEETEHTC

[7] = molecular target: Ras and Rab interactor 1/Tyrosine-protein kinase ABL1 (Homo sapiens, UniProt P00519+Q13671); assay type: functional;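 also: biochemical TR-FRET dose-response test measuring inhibition of binding between Rin1 and Abl proteins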
[8] = intracellular Trypanosoma cruzi inhibitors in host cells – cell-based, plate reader, cherry-pick samples, set 3, dose response (AID 651818); assay type: functional;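 also: compounds incubated with infected cells for about four days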
Vero [9] = test: cells; assay type: functional, cell-based; details: Chlorocebus sabaeus
Vero [10] = test: cells; assay type: functional; details: Chlorocebus sabaeus
[11] = viability of uninfected HEp-2 cells – cell-based, HTS, cytotoxicity control for RSV inhibitor project, dose response (AID 2410); assay type: functional; details: human respiratory syncytial virus
[12] = HEK-293T viability loss after treatment – luminescence, T-cell screen hits, cytotoxicity control for TCR NF-kB inhibitor project, dose response (AID 489026); assay type: functional, cell-based;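 also: cells exposed to compound about 14 hours before the viability readout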
[13] = Luminescence Cell-Based Dose Retest to Confirm Inhibitors of Cancer Stem Cells. [Related pubchem assays (depositor defined):AID2717, AID2721]; assay type: functional; details: Homo sapiens
Paired box protein Pax-8 = Paired box protein Pax-8 (Homo sapiens, UniProt Q06710); test: PAX8 transcriptional activity inhibition in RMG-I – RMG-I cells, luciferase, cherry-pick, dose response (AID 687027); assay type: functional, cell-based;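 also: luciferase reporter driven by Pax8 target thyroperoxidase promoter measured by SteadyGlo luminescence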
Sequence of Paired box protein Pax-8 (Q06710 whole entry): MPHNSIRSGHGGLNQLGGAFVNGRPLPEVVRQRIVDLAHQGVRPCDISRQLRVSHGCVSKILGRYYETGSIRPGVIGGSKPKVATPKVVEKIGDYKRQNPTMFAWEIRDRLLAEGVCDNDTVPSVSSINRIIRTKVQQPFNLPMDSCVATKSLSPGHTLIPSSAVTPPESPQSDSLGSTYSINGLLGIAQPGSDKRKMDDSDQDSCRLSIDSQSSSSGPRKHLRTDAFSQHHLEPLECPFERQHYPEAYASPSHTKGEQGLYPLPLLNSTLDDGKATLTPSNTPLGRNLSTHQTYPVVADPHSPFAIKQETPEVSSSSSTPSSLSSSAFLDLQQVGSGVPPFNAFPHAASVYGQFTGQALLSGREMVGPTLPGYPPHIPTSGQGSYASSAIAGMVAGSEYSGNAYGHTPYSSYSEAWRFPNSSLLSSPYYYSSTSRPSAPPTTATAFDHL

Sequence of Ras and Rab interactor 1/Tyrosine-protein kinase ABL1 (P00519 whole entry): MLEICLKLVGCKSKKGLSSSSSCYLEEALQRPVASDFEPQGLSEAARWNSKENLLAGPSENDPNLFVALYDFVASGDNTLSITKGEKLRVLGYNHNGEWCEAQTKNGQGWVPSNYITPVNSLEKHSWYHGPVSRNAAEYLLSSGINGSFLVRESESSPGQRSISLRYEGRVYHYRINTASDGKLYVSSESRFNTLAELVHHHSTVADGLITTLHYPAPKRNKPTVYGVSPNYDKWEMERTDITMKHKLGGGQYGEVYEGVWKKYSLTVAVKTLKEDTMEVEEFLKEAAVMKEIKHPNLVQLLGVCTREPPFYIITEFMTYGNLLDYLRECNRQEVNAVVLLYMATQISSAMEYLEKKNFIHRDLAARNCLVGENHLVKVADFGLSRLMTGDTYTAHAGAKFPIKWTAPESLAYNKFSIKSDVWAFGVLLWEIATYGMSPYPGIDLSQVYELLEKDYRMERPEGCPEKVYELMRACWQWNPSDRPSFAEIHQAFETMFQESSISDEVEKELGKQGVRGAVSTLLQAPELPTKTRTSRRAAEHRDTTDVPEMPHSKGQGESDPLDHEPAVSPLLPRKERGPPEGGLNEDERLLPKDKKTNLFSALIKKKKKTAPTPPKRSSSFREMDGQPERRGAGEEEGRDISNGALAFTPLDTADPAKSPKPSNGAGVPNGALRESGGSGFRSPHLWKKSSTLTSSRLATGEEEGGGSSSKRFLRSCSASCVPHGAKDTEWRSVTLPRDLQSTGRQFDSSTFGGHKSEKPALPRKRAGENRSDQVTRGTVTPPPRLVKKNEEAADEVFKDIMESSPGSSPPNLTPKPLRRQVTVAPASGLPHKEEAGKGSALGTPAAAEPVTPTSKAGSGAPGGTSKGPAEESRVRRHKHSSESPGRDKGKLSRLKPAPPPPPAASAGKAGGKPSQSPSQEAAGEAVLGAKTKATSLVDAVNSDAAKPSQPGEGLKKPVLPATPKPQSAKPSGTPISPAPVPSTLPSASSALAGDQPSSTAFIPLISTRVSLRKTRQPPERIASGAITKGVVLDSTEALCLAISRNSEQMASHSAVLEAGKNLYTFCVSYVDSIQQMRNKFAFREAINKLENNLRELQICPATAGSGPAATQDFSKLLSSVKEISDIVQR
Sequence of Ras and Rab interactor 1/Tyrosine-protein kinase ABL1 (Q13671 whole entry): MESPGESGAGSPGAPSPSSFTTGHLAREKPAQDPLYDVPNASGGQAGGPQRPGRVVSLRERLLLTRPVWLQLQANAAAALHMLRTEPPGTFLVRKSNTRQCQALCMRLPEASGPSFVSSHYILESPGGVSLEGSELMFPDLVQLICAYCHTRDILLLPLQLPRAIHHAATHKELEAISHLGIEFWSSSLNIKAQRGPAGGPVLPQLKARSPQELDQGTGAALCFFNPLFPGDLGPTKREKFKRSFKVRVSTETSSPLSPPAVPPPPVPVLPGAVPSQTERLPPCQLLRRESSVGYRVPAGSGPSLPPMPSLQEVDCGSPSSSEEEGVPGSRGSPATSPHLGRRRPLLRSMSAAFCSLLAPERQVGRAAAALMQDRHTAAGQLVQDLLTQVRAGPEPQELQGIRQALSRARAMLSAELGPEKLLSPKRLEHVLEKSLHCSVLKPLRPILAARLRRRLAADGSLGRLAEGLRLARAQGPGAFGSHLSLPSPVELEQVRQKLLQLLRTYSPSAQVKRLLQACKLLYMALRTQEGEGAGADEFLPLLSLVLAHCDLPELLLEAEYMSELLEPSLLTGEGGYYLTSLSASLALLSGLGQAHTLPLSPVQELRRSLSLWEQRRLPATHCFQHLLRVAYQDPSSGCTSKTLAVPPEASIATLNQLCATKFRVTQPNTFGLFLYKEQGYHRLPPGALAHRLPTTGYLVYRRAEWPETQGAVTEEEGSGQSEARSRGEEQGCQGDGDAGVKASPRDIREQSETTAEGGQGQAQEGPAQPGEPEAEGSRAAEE

SMILES: COc1cc(NC(=O)c2cccs2)c(OC)cc1NC(=O)CCC(=O)Nc1ccc2ncccc2c1
- EC50 (BJ [1]): > 150 µM (not active)
- EC50 (BJ [2]): 8.14 µM (active)
- EC50 [3]: > 150 µM (not active)
- EC50 (BJ [4]): > 150 µM (not active)
- EC50 (BJ [5]): 4.28 µM (inconclusive)

SMILES: O=C(COC(=O)c1ccc(F)c([N+](=O)[O-])c1)NC(=O)NCc1ccccc1
- AC50 [6]: 13.6 µM (active)

SMILES: Nc1cc[n+]([O-])cc1CCc1ccccc1
- IC50 [7]: 23.3 µM (inactive)

SMILES: O=C(Cc1ccc(NC(=O)C2CCN(C(=O)c3ccccc3)CC2)cc1)Nc1ccc(C(=O)N2CCOCC2)cc1
- IC50 [7]: 6.48 µM (active)

SMILES: C[C@H](CO)N1C[C@H](C)[C@@H](CN(C)Cc2ccc(C(=O)Nc3ccccc3N)cc2)Oc2c(NC(=O)c3nc4ccccc4s3)cccc2C1=O
- AC50 [8]: 1.6 µM (active)

SMILES: C[C@H]1CN([C@@H](C)CO)C(=O)c2cccc(NC(=O)CCCCCC(=O)Nc3ccccc3N)c2O[C@H]1CN(C)S(=O)(=O)c1ccc(Cl)cc1
- AC50 [8]: 3.53 µM (active)

SMILES: C[C@@H]1CCCCO[C@@H](CN(C)C(=O)Nc2ccc(C(F)(F)F)cc2)[C@@H](C)CN([C@H](C)CO)C(=O)c2cc(NC(=O)Cc3ccccc3)ccc2O1
- AC50 [8]: 4.33 µM (active)

SMILES: C[C@H](CO)N1C[C@H](C)[C@H](CN(C)S(=O)(=O)c2cccs2)Oc2c(NC(=O)Nc3ccc(C(F)(F)F)cc3)cccc2C1=O
- AC50 [8]: 4.19 µM (active)

SMILES: Cc1cccc(-n2c(C)cc(/C=N\NC(=O)c3cccs3)c2C)c1
- IC50 (Vero [9]): 14.7 µM (active)
- CC50 (Vero [10]): > 25 µM (active)
- CC50 [11]: 23.4 µM (active)

SMILES: C[C@]12CC[C@H](O)C[C@H]1CC[C@@H]1[C@@H]2C[C@@H](O)[C@]2(C)[C@@H](C3=CC(=O)OC3)CC[C@]12O [DIGOXIGENIN]
- IC50 [12]: > 80 µM (inactive)
- AC50 [13]: 1.16 µM (active)
- IC50 (Vero [9]): < 0.05 µM (active)
- AC50 (Paired box protein Pax-8): 2.35 µM (active)
- CC50 (Vero [10]): 2.1 µM (active)
